Assay results: ChEMBL document CHEMBL1201862, “PubChem BioAssay data set” (2004)
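Exposure lasted 48 hours, with cells grown in 96-well plates and compounds tested at five concentrations. GI50 is the concentration that inhibits growth by half.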 Calls of active or inactive are those of the source. No stated cut-off is given here; in the data, active = GI50 up to about 1.1 µM and inactive = higher.

Legend:
Assay in all cases: NCI-60 cell line screen, 48 h
[1] = system: NCI-H460
[2] = system: HCT-15
[3] = system: TK-10
[4] = system: IGROV-1
[5] = system: NCI-H23
[6] = system: HL-60
[7] = system: M14
[8] = system: SF-268
[9] = system: EKVX
[10] = system: A498
[11] = system: A549
[12] = system: SN12C
[13] = system: CAKI-1
[14] = system: MOLT-4
[15] = system: RXF 393

NC(=O)n1ncc(Cl)c(Cl)c1=O
GI50 [1]: > 100 µM (inactive) | GI50 [2]: > 100 µM | GI50 [3]: > 100 µM (inactive) | GI50 [4]: > 100 µM (inactive) | GI50 [5]: > 100 µM (inactive) | GI50 [6]: 95.3 µM (inactive) | GI50 [7]: > 100 µM (inactive) | GI50 [8]: > 100 µM (inactive) | GI50 [9]: > 100 µM (inactive) | GI50 [10]: > 100 µM (inactive) | GI50 [11]: > 100 µM (inactive) | GI50 [12]: > 100 µM (inactive) | GI50 [13]: > 100 µM (inactive)

S=c1[nH]c2ccc(Br)cc2c(=S)n1-c1ccccc1
GI50 [1]: 12.6 µM (inactive) | GI50 [2]: 16.1 µM | GI50 [3]: 42.4 µM (inactive) | GI50 [4]: 20.6 µM (inactive) | GI50 [5]: 10.7 µM (inactive) | GI50 [7]: 20.7 µM (inactive) | GI50 [8]: 11 µM (inactive) | GI50 [9]: 37.2 µM (inactive) | GI50 [10]: 32.4 µM (inactive) | GI50 [11]: 26.7 µM (inactive) | GI50 [12]: 20.6 µM (inactive) | GI50 [13]: 29.2 µM (inactive)

N#Cc1cccc(N2C(=O)c3c(c(-c4ccccc4)c(-c4ccc(Sc5ccc(-c6c(-c7ccccc7)c7c(c(-c8ccccc8)c6-c6ccccc6)C(=O)N(c6cccc(C#N)c6)C7=O)cc5)cc4)c(-c4ccccc4)c3-c3ccccc3)C2=O)c1
GI50 [1]: > 100 µM (inactive) | GI50 [2]: 43.8 µM | GI50 [3]: 51.8 µM (inactive) | GI50 [4]: 28.8 µM (inactive) | GI50 [5]: > 100 µM (inactive) | GI50 [6]: > 100 µM (inactive) | GI50 [7]: > 100 µM (inactive) | GI50 [8]: 55.7 µM (inactive) | GI50 [14]: 49.2 µM (inactive) | GI50 [15]: 16.9 µM (inactive) | GI50 [9]: 35.8 µM (inactive) | GI50 [11]: > 100 µM (inactive) | GI50 [12]: 23.9 µM (inactive)

CCOC(=O)N1CCC(=O)C[C@@H]1C/C=C/P1(=O)O[C@H](c2ccccc2)C(C)N1C(C)C (some centres undefined)
GI50 [2]: > 100 µM | GI50 [3]: > 100 µM (inactive) | GI50 [4]: > 100 µM (inactive) | GI50 [5]: > 100 µM (inactive) | GI50 [8]: > 100 µM (inactive) | GI50 [14]: > 100 µM (inactive) | GI50 [15]: > 100 µM (inactive) | GI50 [9]: > 100 µM (inactive) | GI50 [11]: > 100 µM (inactive) | GI50 [12]: > 100 µM (inactive) | GI50 [13]: > 100 µM (inactive)

CC(C)=CCC/C(=C/CC/C(C)=C/CCc1ccoc1)C(=O)O
GI50 [1]: > 100 µM (inactive) | GI50 [2]: > 100 µM | GI50 [5]: > 100 µM (inactive) | GI50 [7]: > 100 µM (inactive) | GI50 [8]: > 100 µM (inactive) | GI50 [14]: > 100 µM (inactive) | GI50 [15]: > 100 µM (inactive) | GI50 [9]: > 100 µM (inactive) | GI50 [10]: > 100 µM (inactive) | GI50 [11]: > 100 µM (inactive) | GI50 [12]: > 100 µM (inactive)

CS/C(C)=N/OC(=O)NCCCCNc1ccc(N=[N+]=[N-])cc1
GI50 [1]: 35 µM (inactive) | GI50 [2]: 36.9 µM | GI50 [3]: 33.3 µM (inactive) | GI50 [4]: 87.3 µM (inactive) | GI50 [5]: 34.9 µM (inactive) | GI50 [7]: 37.7 µM (inactive) | GI50 [8]: 32.7 µM (inactive) | GI50 [14]: 28.4 µM (inactive) | GI50 [15]: 46 µM (inactive) | GI50 [9]: 45.4 µM (inactive) | GI50 [10]: 47 µM (inactive) | GI50 [11]: 30.4 µM (inactive) | GI50 [12]: 59.2 µM (inactive) | GI50 [13]: 36.5 µM (inactive)

c1csc(C[N+]23CN4CN(CN(C4)C2)C3)c1
GI50 [1]: 23.2 µM (inactive) | GI50 [2]: 28.2 µM | GI50 [3]: 26.4 µM (inactive) | GI50 [4]: 29.9 µM (inactive) | GI50 [5]: > 100 µM (inactive) | GI50 [6]: 14.7 µM (inactive) | GI50 [7]: 17 µM (inactive) | GI50 [8]: > 100 µM (inactive) | GI50 [14]: 21.6 µM (inactive) | GI50 [11]: 30 µM (inactive) | GI50 [13]: 25.8 µM (inactive)

NC1=NC(Cn2nc(-c3ccccc3)c3ccccc3c2=O)=NNC(=O)N1
GI50 [1]: > 100 µM (inactive) | GI50 [2]: > 100 µM | GI50 [3]: > 100 µM (inactive) | GI50 [4]: > 100 µM (inactive) | GI50 [5]: > 100 µM (inactive) | GI50 [7]: > 100 µM (inactive) | GI50 [8]: > 100 µM (inactive) | GI50 [14]: > 100 µM (inactive) | GI50 [10]: > 100 µM (inactive) | GI50 [11]: > 100 µM (inactive) | GI50 [12]: > 100 µM (inactive) | GI50 [13]: > 100 µM (inactive)

COCCNC(=O)C1C(=O)N(CCOC)C(=O)/C1=N/N (centres undefined)
GI50 [2]: > 100 µM | GI50 [3]: > 100 µM (inactive) | GI50 [4]: > 100 µM (inactive) | GI50 [5]: > 100 µM (inactive) | GI50 [6]: > 100 µM (inactive) | GI50 [7]: > 100 µM (inactive) | GI50 [8]: > 100 µM (inactive) | GI50 [14]: > 100 µM (inactive) | GI50 [9]: > 100 µM (inactive) | GI50 [11]: > 100 µM (inactive) | GI50 [12]: > 100 µM (inactive) | GI50 [13]: > 100 µM (inactive)
